Laboratory results as given in patent US7699995B2, “Water treatment method” (priority 2006, dated 2010).
Values after ≈ are worked out from the molar mass of the structure shown.

Key:
Assay type in all cases: cell-based
Geotrichum candidum = test: MIC, fungi, MEB pH 4.7; details: 168 h
Description: (§1) Minimum inhibitory concentration (MIC) studies were conducted to determine the lowest level of biocide required to inhibit growth of bacteria and fungi. Tests were conducted in 96-well microtiter plates. Biocides were added to growth media in the plates and serially diluted to obtain a range of concentrations. Bacterial tests were conducted in trypticase soy broth (TSB; pH 7) using an overnight inoculum added at 10^6 colony forming units per ml. […] Fungal tests were conducted in malt extract broth (MEB; pH 4.7) using an 5-7 day inoculum added at 10^4 colony forming units per ml.

Acremonium strictum = test: MIC, fungi, MEB pH 4.7; details: Sarocladium strictum, 168 h
Description: as §1

Trichosporon sp. = test: MIC, fungi, MEB pH 4.7; details: 168 h
Description: as §1

Candida albicans = test: MIC, fungi, MEB pH 4.7; details: 168 h
Description: as §1

Rhodotorula rubra = test: MIC, fungi, MEB pH 4.7; details: 168 h
Description: as §1

Field Isolate (fungi) = test: MIC, fungi, MEB pH 4.7; details: 168 h, MEB pH 4.7, 25° C., 7 days
Description: as §1

Fusarium sp. = test: MIC, fungi, MEB pH 4.7; details: 168 h, MEB pH 4.7, 25° C., 7 days
Description: as §1

Fusarium solani = test: MIC, fungi, MEB pH 4.7; details: 168 h
Description: as §1

bacteria and fungi = test: MIC pH 9.0 versus pH 7.1, all nine organisms; details: over the nine organisms tested
Description: Minimum inhibitory concentration (MIC) studies were conducted to determine the lowest level of biocide required to inhibit growth of bacteria and fungi. Tests were conducted in 96-well microtiter plates. Biocides were added to growth media in the plates and serially diluted to obtain a range of concentrations. Tests were conducted in one-half strength trypticase soy broth (TSB; adjusted to pH 7.1 or pH 9.0). Bacteria and fungi were added to samples at 10^6 colony forming units per ml and incubated at 30° C. for three days. MIC values were determined visually on a growth no-growth basis.

Pseudomonas putida = test: MIC, bacteria, TSB pH 7; details: 48 h
Description: as §1

Alcaligenes faecalis = test: MIC, bacteria, TSB pH 7; details: 48 h
Description: as §1

Citrobacter freundii = test: MIC, bacteria, TSB pH 7; details: 48 h, TSB pH 7, 25° C., two days
Description: as §1

Pseudomonas oleovorans = test: MIC, bacteria, TSB pH 7
Description: as §1

Klebsiella pneumoniae = test: MIC, bacteria, TSB pH 7; details: 48 h
Description: as §1

Pseudomonas aeruginosa = test: MIC, bacteria, TSB pH 7; details: 48 h, TSB pH 7, 25° C., two days
Description: as §1

Pseudomonas fluorescens = test: MIC, bacteria, TSB pH 7; details: 48 h, TSB pH 7, 25° C., two days
Description: as §1

Enterobacter aerogenes = test: MIC, bacteria, TSB pH 7; details: Klebsiella aerogenes, 48 h
Description: as §1

Proteus mirabilis = test: MIC, bacteria, TSB pH 7; details: 48 h
Description: as §1

Shewanella putrefaciens = test: MIC, bacteria, TSB pH 7; details: 48 h
Description: as §1

Escherichia coli = test: MIC, bacteria, TSB pH 7; details: 48 h
Description: as §1

Enterobacter cloacae = test: MIC, bacteria, TSB pH 7; details: 48 h
Description: as §1

Question: For `Cn1sccc1=O` [MI, 2-methyl-4-isothiazolin-3-one], which MIC (Geotrichum candidum) is on record?
Answer: The MIC was 250 µg/mL (≈ 2170 µM).

Question: What about the MIC (Acremonium strictum) of the same compound?
Answer: The MIC was 16 µg/mL (≈ 139 µM).

Question: What about the MIC (Trichosporon sp.) of the same compound?
Answer: The MIC was 63 µg/mL (≈ 547 µM).

Question: What about the MIC (Candida albicans) of the same compound?
Answer: The MIC was 100 µg/mL (≈ 868 µM).

Question: What about the MIC (Rhodotorula rubra) of the same compound?
Answer: Its MIC is 125 µg/mL (≈ 1090 µM).

Question: And the MIC (Field Isolate (fungi); first listed)?
Answer: Its MIC is 8 µg/mL (≈ 69.5 µM).

Question: And the MIC (Field Isolate (fungi); second listed)?
Answer: Its MIC is 21 µg/mL (≈ 182 µM).

Question: What about the MIC (Field Isolate (fungi); third listed) of the same compound?
Answer: The MIC was 6 µg/mL (≈ 52.1 µM).

Question: And the MIC (Fusarium sp.)?
Answer: The MIC was 25 µg/mL (≈ 217 µM).

Question: And the MIC (Fusarium solani)?
Answer: The MIC was 13 µg/mL (≈ 113 µM).

Question: And the “change of MIC at pH 9.0 versus pH 7.1” value (bacteria and fungi)?
Answer: The value was at most 2 ×.

Question: What about the MIC (Pseudomonas putida) of the same compound?
Answer: Its MIC is 13 µg/mL (≈ 113 µM).

Question: What about the MIC (Alcaligenes faecalis) of the same compound?
Answer: Its MIC is 28 µg/mL (≈ 243 µM).

Question: What about the MIC (Citrobacter freundii; first listed) of the same compound?
Answer: The MIC was 25 µg/mL (≈ 217 µM).

Question: What about the MIC (Citrobacter freundii; second listed) of the same compound?
Answer: The MIC was 41 µg/mL (≈ 356 µM).

Question: And the MIC (Pseudomonas oleovorans; Ectopseudomonas oleovorans, 48 h, pH 7)?
Answer: Its MIC is 6 µg/mL (≈ 52.1 µM).

Question: What about the MIC (Pseudomonas oleovorans; Pseudomonas oleovorans, second listed, TSB pH 7, 25° C., two days) of the same compound?
Answer: The MIC was 6 ppm.

Question: And the MIC (Klebsiella pneumoniae)?
Answer: Its MIC is 12 µg/mL (≈ 104 µM).

Question: What about the MIC (Pseudomonas aeruginosa; first listed) of the same compound?
Answer: Its MIC is 15 µg/mL (≈ 130 µM).

Question: What about the MIC (Pseudomonas aeruginosa; second listed) of the same compound?
Answer: The MIC was 25 µg/mL (≈ 217 µM).

Question: What about the MIC (Pseudomonas fluorescens; first listed) of the same compound?
Answer: Its MIC is 31 µg/mL (≈ 269 µM).

Question: What about the MIC (Pseudomonas fluorescens; second listed) of the same compound?
Answer: Its MIC is 16 µg/mL (≈ 139 µM).

Question: And the MIC (Enterobacter aerogenes)?
Answer: The MIC was 82 µg/mL (≈ 712 µM).

Question: What about the MIC (Proteus mirabilis) of the same compound?
Answer: Its MIC is 21 µg/mL (≈ 182 µM).

Question: And the MIC (Shewanella putrefaciens)?
Answer: Its MIC is 13 µg/mL (≈ 113 µM).

Question: And the MIC (Escherichia coli)?
Answer: Its MIC is 31 µg/mL (≈ 269 µM).

Question: What about the MIC (Enterobacter cloacae) of the same compound?
Answer: The MIC was 25 µg/mL (≈ 217 µM).
